This is an account of results in patent US5183805A (Board of Regents, The University of Texas System, priority 1990, dated 1993).

For one assay, the target named is T1, EGF-R (Homo sapiens, UniProt P00533).
T1 construct: endogenous in cells; host or cells: A431 epidermoid carcinoma cells (ATCC CRL 1555)
Description: Kinetics of EGF-R kinase stimulation: peptide added to A431 cells, then immune complex kinase assay. Particulars: 20 ng/ml peptide, 37° C, very preliminary. The assay is classed as cell-based. Here is the method:
FIG. 1 - Kinetics of EGF-R stimulation by synthetic peptides. To semi-confluent A431 cells (grown in 0.1% FCS), indicated concentrations of cyclic (peptide A) or linear (peptide D) peptide with tyr at position 6 was added at a concentration of 20 ng/ml for 10 min at 37° C. Cells were harvested, lysed, EFG-R was immunoprecipitated, immune complex kinase assays were performed, and proteins resolved as described in FIG. 1. […] This figure compares preliminary kinetics of kinase stimulation after the addition of the active cyclic and less-active linear peptide to A431 cells. Immune complex kinase of EGF-r after addition of various biological response modifiers to A431 cells is shown.

For assay [1], the system named is ornithine decarboxylase (ODC) induction by EGF. The experiment in a line: Effect of peptide pretreatment on EGF-stimulated ODC induction in ME-180 cells. The format is cell-based. Particulars: 100-fold excess, 100 ng/ml peptide 30 min, then 10 ng/ml EGF 3 hours. Here is the method: FIG. 4--Effect of synthetic peptide pretreatment on EGF-stimulated ODC induction in ME-180 cells. […] Cells are pelleted, sonicated in a buffer containing 25 mM NaPO4, 1mM DTT, 40 μM PLP, 0.1 mM EDTA, and centrifuged for 30 min. at 15,000 rpm at 4° C. Ornithine decarboxylase activity was determined on the supernatant by monitoring ^14 CO2 released from 0.5 μCi of I (^14 C) ornithine in a total ornithine concentration of 0.5 mM and a total volume of 0.2ml. P1--linear peptide and P2--cyclic peptide with phe at position 6; P3--linear peptide and P4--cyclic peptide with tyr at position 6.

For another assay, the system named is A431 cells. Description: Mitogenic stimulation / growth of A431 cells. The conditions noted are these: for effect on A431 cell growth: serum-free medium, counted after 72 hours. The format is cell-based. Here is the method: FlG. […] Mitogenic Stimulation of A431 cells. […] The peptide analog 38A is the cyclic form of the peptide with native tyrosine. Cells were harvested 72 hours later and counted with the aid of a hemacytometer.
A431 cells are a malignant cell line in which the study of EGF-r has been well characterized. […] Over the range of peptide analog concentrations tested, no inhibition of A431 cell growth was observed.

Assay [2] concerns the target T2, EGF receptor (Homo sapiens, UniProt P00533). The experiment in a line: Summary statements on biological activity (receptor studies, parameters examined) compared with other EGF peptide analogs. The source says: Relative biological activity of a peptide also may reflect the activity of the peptide in immune complex kinase assays, the ability to inhibit ornithine decarboxylase activity, mitogenic stimulation activity, ability to induce EGF-r phosphorylation in vivo and action in the phosphorylation of calpactin.

For assay [3], the target named is T2, EGF receptor. Description: Inhibition of 125I-EGF binding to A431 cells (EGF receptor competition assay). Details: endogenous in cells; host or cells: A431 epidermoid carcinoma cells (ATCC CRL 1555). As for the experimental part:
FIG. 3--Inhibition of ^125 I-EGF binding by synthetic peptides. 1×10^5 A431 cells were plated in each well of a 24 well tissue culture plate, and allowed to grow for 48 o hours. Cells were rinsed 3 times in cold serum-free DMEM containing 0.1% BSA and 50 mM HEPES, pH 7.4, then incubated in this medium for 45 min. at 4° C. Subsequently, varying concentrations of peptide (or unlabeled EFG) was added, followed by 20,000 cpm ^125 I-EGF. After 2 hours incubation, medium is removed and cells are washed two times in PBS, then solubilized in 1 ml IN NaOH at 24° C. for 18 hours. Radioactivity in the solution is determined in a gamma counter. Peptide A--cyclic peptide with tyr at position 6; Peptide B--linear peptide with tyr at position 6; Peptide C --cyclic peptide with phe at position 6.
For this assay, cells were grown overnight in serum free media in microtiter wells, washed several times in PBS, then incubated for 2h with various concentrations of peptides. ^125 I-EGF was then added for 3o min, cells were extensively washed, and radioactivity was estimated in a gamma counter.

Assay [4] has as its target T2, EGF receptor. Description: Immune complex kinase assay of EGF-R immunoprecipitated from A431 cells, peptides added to the complexes, autophosphorylation measured. The assay is classed as biochemical. Details: endogenous in cells; host or cells: A431 epidermoid carcinoma cells (ATCC CRL 1555). Here is the method: A431 cells at approximately 70-80% confluency were lysed in a detergent-containing (RIPA) buffer, and clarified by centrifuging at 10,000×g for 10 min. […] Immune complexes were harvested after 15 min. incubation with 50 μl Pansorbin. For kinase assays, complexes were washed in RIPA buffer, then resuspended in 50 μl 1 0.1% Triton X-100 in 20 mM HEPES, pH 7.0, with the addition of 100 μm sodium vanadate. After 10 min. incubation, kinase reaction was initiated by addition of 50 μl of 20 mM HEPES containing 10 μCi γ^-32p ATP. Reaction was allowed to proceed at 25° C. for 10 min., and terminated by addition of RIPA buffer.
This assay is very sensitive, and kinase activation is among the earliest events in mitogenesis.
Immune complexes were harvested with formalin fixed staphylococcus aureus Cowan Strain (Calbiochem). These complexes were then assayed for kinase activity in an immune complex kinase assay.
Selected peptides from Example 3 were employed in the study.

The conditions of assay [5]: Heath and Merrifield (1986); cited from earlier work.

Read-outs that look alike come from different tables or passages of the source. Positions of bridges follow the written chain, without caps; N, C: chain ends. Residues, ends and D or L forms follow the SMILES beside them. No end group written: not given here.

T2 sequence (P00533 25-1210): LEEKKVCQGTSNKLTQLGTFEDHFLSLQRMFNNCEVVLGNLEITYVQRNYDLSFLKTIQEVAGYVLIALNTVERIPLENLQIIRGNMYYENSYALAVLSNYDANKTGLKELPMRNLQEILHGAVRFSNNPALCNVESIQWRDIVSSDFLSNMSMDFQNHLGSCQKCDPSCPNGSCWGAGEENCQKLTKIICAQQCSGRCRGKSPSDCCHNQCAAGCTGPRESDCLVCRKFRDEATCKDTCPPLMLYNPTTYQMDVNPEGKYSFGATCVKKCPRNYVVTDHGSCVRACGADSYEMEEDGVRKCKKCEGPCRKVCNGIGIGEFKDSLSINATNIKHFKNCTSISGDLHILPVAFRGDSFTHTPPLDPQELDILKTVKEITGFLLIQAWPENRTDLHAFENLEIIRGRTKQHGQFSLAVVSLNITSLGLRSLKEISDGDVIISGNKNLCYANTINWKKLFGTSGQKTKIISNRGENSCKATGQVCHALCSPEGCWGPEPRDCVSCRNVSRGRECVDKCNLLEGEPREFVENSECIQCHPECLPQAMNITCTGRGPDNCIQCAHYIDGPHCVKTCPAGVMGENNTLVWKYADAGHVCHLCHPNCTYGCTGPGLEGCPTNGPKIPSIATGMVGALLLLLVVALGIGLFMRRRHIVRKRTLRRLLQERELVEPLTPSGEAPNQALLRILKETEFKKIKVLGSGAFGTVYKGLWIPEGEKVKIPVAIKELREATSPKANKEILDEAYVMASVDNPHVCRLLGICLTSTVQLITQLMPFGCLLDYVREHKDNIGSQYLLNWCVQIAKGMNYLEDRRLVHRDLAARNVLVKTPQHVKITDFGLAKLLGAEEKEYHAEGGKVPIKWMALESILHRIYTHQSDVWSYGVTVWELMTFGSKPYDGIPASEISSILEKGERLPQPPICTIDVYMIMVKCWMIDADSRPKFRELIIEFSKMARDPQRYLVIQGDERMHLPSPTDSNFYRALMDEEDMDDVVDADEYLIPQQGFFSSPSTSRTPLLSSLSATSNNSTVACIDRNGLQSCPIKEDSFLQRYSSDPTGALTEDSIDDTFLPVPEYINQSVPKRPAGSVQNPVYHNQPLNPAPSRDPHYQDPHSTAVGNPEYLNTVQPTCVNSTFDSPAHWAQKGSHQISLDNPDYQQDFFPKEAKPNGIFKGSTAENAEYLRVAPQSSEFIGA
T1 sequence (P00533 25-1210): as above

Take `CC[C@H](C)[C@@H]1NC(=O)[C@H](Cc2ccc(O)cc2)NC(=O)CNC(=O)[C@H](C(C)C)NC(=O)[C@H](C(C)C)NC(=O)[C@@H](NC(=O)[C@H](CC(N)=O)NC(C)=O)CSSC[C@@H](C(=O)N[C@@H](CCC(N)=O)C(=O)N[C@@H](Cc2ccc(O)cc2)C(=O)N[C@@H](CCCNC(=N)N)C(=O)N[C@@H](CC(=O)O)C(=O)N[C@@H](CC(C)C)C(=O)N[C@@H](CCCCN)C(N)=O)NC(=O)[C@H](CCCNC(=N)N)NC(=O)[C@H](CCC(=O)O)NC(=O)CNC1=O` [Peptide A] (Ac-NCVVGYIGERCQYRDLK-NH2; disulfide 2-11): the “time of maximum stimulation of kinase activity” value at EGF-R was 15 min. Besides, the “inhibition of ODC induction of EGF” value in assay [1] came to 50%. For the same molecule, the “effect on A431 cell growth” value is listed as “stimulated cell growth” in the assay on A431 cells (0.1 ng/ml, listed as 38A); “stimulated these cells” with A431 cells (0.1 ng/ml, listed as most biologically active cyclic peptide analog); “stimulated cell growth” in the assay on A431 cells (10 ng/ml, listed as 38A); “stimulated these cells” in the assay on A431 cells (10 ng/ml, listed as most biologically active cyclic peptide analog). Besides, the “effect of higher concentrations of EGF on A431 growth in the presence of peptide” value in the assay on A431 cells (10 ng/ml peptide analog mixed with higher concentrations of EGF) is listed as “no longer growth-inhibited”. Also, the “effect on A431 cell growth of peptide mixed with EGF” value with A431 cells (peptide and EGF mixed, low concentrations) is on record as “stimulation of cell growth”. In the assay with A431 cells (whole concentration range tested), the “inhibition of A431 cell growth over the range of concentrations tested” value is “no inhibition”. Further, the “biological activity relative to any other EGF peptide analog so far synthesized” value is 100 fold on EGF receptor [2] (listed as cyclic form of this unsubstituted peptide); 100 fold on EGF receptor [2] (listed as cyclic peptide comprising the end of the B loop and the C loop); over 100 fold at EGF receptor [2] (listed as natural tyrosine form of the cyclic peptide analog). For the same molecule, the “competition for EGF receptor binding relative to any previously reported peptide” value at EGF receptor [3] is reported as 100 fold. The “concentration for 50% inhibition of 125I-EGF binding relative to that for unlabeled EGF” value on EGF receptor [3] was 10 fold.
Take `CC[C@H](C)[C@H](NC(=O)[C@H](Cc1ccc(O)cc1)NC(=O)CNC(=O)[C@@H](NC(=O)[C@@H](NC(=O)[C@H](CS)NC(=O)[C@H](CC(N)=O)NC(C)=O)C(C)C)C(C)C)C(=O)NCC(=O)N[C@@H](CCC(=O)O)C(=O)N[C@@H](CCCNC(=N)N)C(=O)N[C@@H](CS)C(=O)N[C@@H](CCC(N)=O)C(=O)N[C@@H](Cc1ccc(O)cc1)C(=O)N[C@@H](CCCNC(=N)N)C(=O)N[C@@H](CC(=O)O)C(=O)N[C@@H](CC(C)C)C(=O)N[C@@H](CCCCN)C(N)=O` [Peptide B] (Ac-NCVVGYIGERCQYRDLK-NH2): the “biological activity relative to any other EGF peptide analog so far synthesized” value on EGF receptor [2] was 10 fold. For the same molecule, the “competition for 125I-EGF binding (in words)” value on EGF receptor [3] is reported as “marginal competition”.
In the case of `CC[C@H](C)[C@@H]1NC(=O)[C@H](Cc2ccccc2)NC(=O)CNC(=O)[C@H](C(C)C)NC(=O)[C@H](C(C)C)NC(=O)[C@@H](NC(=O)[C@H](CC(N)=O)NC(C)=O)CSSC[C@@H](C(=O)N[C@@H](CCC(N)=O)C(=O)N[C@@H](Cc2ccc(O)cc2)C(=O)N[C@@H](CCCNC(=N)N)C(=O)N[C@@H](CC(=O)O)C(=O)N[C@@H](CC(C)C)C(=O)N[C@@H](CCCCN)C(N)=O)NC(=O)[C@H](CCCNC(=N)N)NC(=O)[C@H](CCC(=O)O)NC(=O)CNC1=O` [Peptide C] (Ac-NCVVGFIGERCQYRDLK-NH2; disulfide 2-11), on EGF receptor [4] (30 ng/ml peptide), the “stimulation of kinase activity” value is recorded as “approximately 2 fold”. Further, the “competition for 125I-EGF binding (in words)” value on EGF receptor [3] was “marginal competition”.
Regarding `CC[C@H](C)[C@H](NC(=O)[C@H](Cc1ccccc1)NC(=O)CNC(=O)[C@@H](NC(=O)[C@@H](NC(=O)[C@H](CS)NC(=O)[C@H](CC(N)=O)NC(C)=O)C(C)C)C(C)C)C(=O)NCC(=O)N[C@@H](CCC(=O)O)C(=O)N[C@@H](CCCNC(=N)N)C(=O)N[C@@H](CS)C(=O)N[C@@H](CCC(N)=O)C(=O)N[C@@H](Cc1ccc(O)cc1)C(=O)N[C@@H](CCCNC(=N)N)C(=O)N[C@@H](CC(=O)O)C(=O)N[C@@H](CC(C)C)C(=O)N[C@@H](CCCCN)C(N)=O` [Peptide P1] (Ac-NCVVGFIGERCQYRDLK-NH2), the “stimulation of EGF-receptor kinase activity (in words)” value on EGF receptor [4] was “no activity”.
For “epidermal growth factor (NSDSECPLSHDGYCLHDGVCMYIEALDKYACNCVVGYIGERCQYRDLKWWELR; Epidermal growth factor; UniProt P01133 971-1023, looked up) [EGF, single-chain polypeptide, 53 amino acid residues, three internal disulfide bonds]”, the “effect on A431 cell growth” value with A431 cells (0.1 ng/ml) is “stimulated A431 cell growth”; with A431 cells (0.1 ng/ml, listed as Native EGF) it was “stimulated growth”; in the assay with A431 cells (10 ng/ml), “inhibited”; with A431 cells (10 ng/ml, listed as Native EGF), “inhibited cell growth”.
With “isolated "B" loop: synthetic peptide of the isolated B loop of EGF (residues 20-31), Heath and Merrifield (CMYIEALDKYAC; ends and bridges not checked; cysteine pairing not given here; UniProt P01133 990-1001, looked up, fragment)”, the “activity relative to EGF” value in assay [5] is 0.001%.
